PubChem BioAssay AID2060902 (Molecular Pharmacology Branch, DTP, NCI, 2025)

System: 485368-065-R3-J5-PDC spheroids with HUVEC/MSC, viability
Assay: Anticancer human tumor 485368-065-R3-J5-PDC patient-derived pancreatic carcinoma cell line growth inhibition [RAS]
Conditions: for IC50: curve of first compound; for viability, T/C: stronger effect = lower value; active = viability on the fitted dose curve at most 10% of control; inactive = the rest
Procedure, shortened: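 Multi-cell-type spheroids: tumor cells plus HUVEC endothelial cells and mesenchymal stem cells. RAS-pathway inhibitors were combined with targeted agents, each dosed in half-log steps down from clinical Cmax, or from 10 microM when Cmax was unknown.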

[1] = second compound 0.00316 µM, first compound 0.0316 µM
[2] = second compound 0.00316 µM, first compound 0.1 µM
[3] = second compound 0.00316 µM, first compound 0.316 µM
[4] = second compound 0.00316 µM, first compound 1 µM
[5] = second compound 0.00316 µM, first compound 3.16 µM
[6] = second compound 0.00316 µM, first compound 10 µM
[7] = second compound 0.01 µM, first compound 0.0316 µM
[8] = second compound 0.01 µM, first compound 0.1 µM
[9] = second compound 0.01 µM, first compound 0.316 µM
[10] = second compound 0.01 µM, first compound 1 µM
[11] = second compound 0.01 µM, first compound 3.16 µM
[12] = second compound 0.01 µM, first compound 10 µM
[13] = second compound 0.0316 µM, first compound 0.0316 µM
[14] = second compound 0.0316 µM, first compound 0.1 µM
[15] = second compound 0.0316 µM, first compound 0.316 µM
[16] = second compound 0.0316 µM, first compound 1 µM
[17] = second compound 0.0316 µM, first compound 3.16 µM
[18] = second compound 0.0316 µM, first compound 10 µM
[19] = second compound 0.1 µM, first compound 0.0316 µM
[20] = second compound 0.1 µM, first compound 0.1 µM
[21] = second compound 0.1 µM, first compound 0.316 µM
[22] = second compound 0.1 µM, first compound 1 µM
[23] = second compound 0.1 µM, first compound 3.16 µM
[24] = second compound 0.1 µM, first compound 10 µM
[25] = second compound 0.316 µM, first compound 0.0316 µM
[26] = second compound 0.316 µM, first compound 0.1 µM
[27] = second compound 0.316 µM, first compound 0.316 µM
[28] = second compound 0.316 µM, first compound 1 µM
[29] = second compound 0.316 µM, first compound 3.16 µM
[30] = second compound 0.316 µM, first compound 10 µM
[31] = second compound 1 µM, first compound 0.0316 µM
[32] = second compound 1 µM, first compound 0.1 µM
[33] = second compound 1 µM, first compound 0.316 µM
[34] = second compound 1 µM, first compound 1 µM
[35] = second compound 1 µM, first compound 3.16 µM
[36] = second compound 1 µM, first compound 10 µM
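Note: spheroids exposed to agents for seven days before readout.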

CC1(O)CCCC1n1c(=O)c(C(F)F)cc2cnc(NC3CCN(S(C)(=O)=O)CC3)nc21 (stereo not given) + C=CC(=O)N1CCN(c2nc(OCC3CCCN3C)nc3c(F)c(-c4nc(N)cc(C)c4C(F)(F)F)c(Cl)cc23)C(C)C1
750 nM: IC50 (second compound 1 µM)
inactive: viability, T/C [1] 109% | viability, T/C [2] 68.7% | viability, T/C [3] 46.7% | viability, T/C [4] 48.2% | viability, T/C [5] 40.6% | viability, T/C [6] 11.1% | viability, T/C [7] 107% | viability, T/C [8] 69.5% | viability, T/C [9] 45.3% | viability, T/C [10] 38.8% | viability, T/C [11] 42.1% | viability, T/C [12] 12.6% | viability, T/C [13] 99.3% | viability, T/C [14] 62.2% | viability, T/C [15] 44.4% | viability, T/C [16] 42.2% | viability, T/C [17] 45.9% | viability, T/C [18] 11.3% | viability, T/C [19] 93.9% | viability, T/C [20] 62.8% | viability, T/C [21] 38.3% | viability, T/C [22] 41.9% | viability, T/C [23] 47.6% | viability, T/C [24] 10.6% | viability, T/C [25] 99.7% | viability, T/C [26] 64.8% | viability, T/C [27] 51.8% | viability, T/C [28] 42% | viability, T/C [29] 43.4% | viability, T/C [30] 12.5% | viability, T/C [31] 109% | viability, T/C [32] 60% | viability, T/C [33] 41.3% | viability, T/C [34] 55.7% | viability, T/C [35] 44.9% | viability, T/C [36] 11.1%
402 nM: IC50 (second compound 0.00316 µM)
258 nM: IC50 (second compound 0.1 µM)
429 nM: IC50 (second compound 0.316 µM)
314 nM: IC50 (second compound 0.01 µM)
298 nM: IC50 (second compound 0.0316 µM)

CCC(CC)c1cc(NC2CCC(N)C2)n2nccc2n1 (stereo not given) + C=CC(=O)N1CCN(c2nc(OCC3CCCN3C)nc3c(F)c(-c4nc(N)cc(C)c4C(F)(F)F)c(Cl)cc23)C(C)C1
1950 nM: IC50 (second compound 0.00316 µM) | IC50 (second compound 0.0316 µM)
1980 nM: IC50 (second compound 1 µM)
1990 nM: IC50 (second compound 0.01 µM)
1970 nM: IC50 (second compound 0.1 µM)
inactive: viability, T/C [1] 107% | viability, T/C [2] 93% | viability, T/C [3] 114% | viability, T/C [4] 133% | viability, T/C [7] 118% | viability, T/C [8] 108% | viability, T/C [9] 109% | viability, T/C [10] 136% | viability, T/C [13] 101% | viability, T/C [14] 109% | viability, T/C [15] 112% | viability, T/C [16] 134% | viability, T/C [19] 93.7% | viability, T/C [20] 104% | viability, T/C [21] 117% | viability, T/C [22] 143% | viability, T/C [25] 94.8% | viability, T/C [26] 108% | viability, T/C [27] 106% | viability, T/C [28] 132% | viability, T/C [31] 97.5% | viability, T/C [32] 92.3% | viability, T/C [33] 120% | viability, T/C [34] 133%
1940 nM: IC50 (second compound 0.316 µM)
active: viability, T/C [5] 3.52% | viability, T/C [6] 6.56% | viability, T/C [11] 3.73% | viability, T/C [12] 5.65% | viability, T/C [17] 3.48% | viability, T/C [18] 4.43% | viability, T/C [23] 3.81% | viability, T/C [24] 6.8% | viability, T/C [29] 3.87% | viability, T/C [30] 7.93% | viability, T/C [35] 5.49% | viability, T/C [36] 10.8%

CCN1CCN(Cc2ccc(Nc3ncc(F)c(-c4cc(F)c5nc(C)n(C(C)C)c5c4)n3)nc2)CC1 + C=CC(=O)N1CCN(c2nc(OCC3CCCN3C)nc3c(F)c(-c4nc(N)cc(C)c4C(F)(F)F)c(Cl)cc23)C(C)C1
454 nM: IC50 (second compound 0.0316 µM)
316 nM: IC50 (second compound 0.00316 µM)
627 nM: IC50 (second compound 1 µM)
644 nM: IC50 (second compound 0.1 µM)
300 nM: IC50 (second compound 0.01 µM)
inactive: viability, T/C (second compound 0.00316 µM, first compound 0.00316 µM) 107% | viability, T/C (second compound 0.00316 µM, first compound 0.01 µM) 95.8% | viability, T/C [1] 82.5% | viability, T/C [2] 61.7% | viability, T/C [3] 48.1% | viability, T/C [4] 47% | viability, T/C (second compound 0.01 µM, first compound 0.00316 µM) 107% | viability, T/C (second compound 0.01 µM, first compound 0.01 µM) 96.7% | viability, T/C [7] 81.3% | viability, T/C [8] 64.3% | viability, T/C [9] 49.6% | viability, T/C [10] 38% | viability, T/C (second compound 0.0316 µM, first compound 0.00316 µM) 106% | viability, T/C (second compound 0.0316 µM, first compound 0.01 µM) 98.8% | viability, T/C [13] 82.1% | viability, T/C [14] 73.4% | viability, T/C [15] 52.9% | viability, T/C [16] 40.5% | viability, T/C (second compound 0.1 µM, first compound 0.00316 µM) 94.8% | viability, T/C (second compound 0.1 µM, first compound 0.01 µM) 88.1% | viability, T/C [19] 90.1% | viability, T/C [20] 76.8% | viability, T/C [21] 60.2% | viability, T/C [22] 43.8% | viability, T/C (second compound 0.316 µM, first compound 0.00316 µM) 97.5% | viability, T/C (second compound 0.316 µM, first compound 0.01 µM) 96.2% | viability, T/C [25] 81% | viability, T/C [26] 65.5% | viability, T/C [27] 62.4% | viability, T/C [28] 42.7% | viability, T/C (second compound 1 µM, first compound 0.00316 µM) 106% | viability, T/C (second compound 1 µM, first compound 0.01 µM) 88.3% | viability, T/C [31] 80.3% | viability, T/C [32] 68% | viability, T/C [33] 57.3% | viability, T/C [34] 44.8%
604 nM: IC50 (second compound 0.316 µM)

Cc1nc(N2CCC3(CC2)COC(C)C3N)c(CO)nc1Sc1ccnc(N)c1Cl (stereo not given) + C=CC(=O)N1CCN(c2nc(OCC3CCCN3C)nc3c(F)c(-c4nc(N)cc(C)c4C(F)(F)F)c(Cl)cc23)C(C)C1
> 10000 nM: IC50 (second compound 0.0316 µM) | IC50 (second compound 0.1 µM) | IC50 (second compound 0.316 µM) | IC50 (second compound 1 µM)
inactive: viability, T/C [1] 101% | viability, T/C [2] 84.3% | viability, T/C [3] 83.6% | viability, T/C [4] 68.2% | viability, T/C [5] 57.7% | viability, T/C [6] 47.6% | viability, T/C [7] 91.7% | viability, T/C [8] 89.4% | viability, T/C [9] 85.1% | viability, T/C [10] 72.8% | viability, T/C [11] 64.6% | viability, T/C [12] 45.9% | viability, T/C [13] 97.4% | viability, T/C [14] 93.1% | viability, T/C [15] 66.8% | viability, T/C [16] 61.5% | viability, T/C [17] 63.1% | viability, T/C [18] 61.7% | viability, T/C [19] 86.4% | viability, T/C [20] 81.7% | viability, T/C [21] 75.6% | viability, T/C [22] 75.6% | viability, T/C [23] 70.7% | viability, T/C [24] 53.1% | viability, T/C [25] 98.5% | viability, T/C [26] 89.7% | viability, T/C [27] 79.9% | viability, T/C [28] 77% | viability, T/C [29] 65.5% | viability, T/C [30] 51.2% | viability, T/C [31] 97.3% | viability, T/C [32] 95.8% | viability, T/C [33] 80.3% | viability, T/C [34] 73.1% | viability, T/C [35] 58.7% | viability, T/C [36] 50.1%
7820 nM: IC50 (second compound 0.00316 µM)
7830 nM: IC50 (second compound 0.01 µM)

NC1c2ccccc2OC12CCN(c1cnc3c(N4CCCc5ncccc54)n[nH]c3n1)CC2 (stereo not given) + C=CC(=O)N1CCN(c2nc(OCC3CCCN3C)nc3c(F)c(-c4nc(N)cc(C)c4C(F)(F)F)c(Cl)cc23)C(C)C1
inactive: viability, T/C [1] 83.2% | viability, T/C [2] 60.2% | viability, T/C [3] 78.5% | viability, T/C [4] 72.2% | viability, T/C [5] 67% | viability, T/C [6] 69.8% | viability, T/C [7] 87.7% | viability, T/C [8] 76.8% | viability, T/C [9] 67.5% | viability, T/C [10] 64.4% | viability, T/C [11] 77% | viability, T/C [12] 65.7% | viability, T/C [13] 81.2% | viability, T/C [14] 88.2% | viability, T/C [15] 64.1% | viability, T/C [16] 67.4% | viability, T/C [17] 72.5% | viability, T/C [18] 69.8% | viability, T/C [19] 82.4% | viability, T/C [20] 75.8% | viability, T/C [21] 61.1% | viability, T/C [22] 74.9% | viability, T/C [23] 78% | viability, T/C [24] 74.6% | viability, T/C [25] 72.1% | viability, T/C [26] 79.2% | viability, T/C [27] 75.1% | viability, T/C [28] 64.1% | viability, T/C [29] 73.1% | viability, T/C [30] 60.4% | viability, T/C [31] 84.7% | viability, T/C [32] 77.5% | viability, T/C [33] 72.9% | viability, T/C [34] 60.6% | viability, T/C [35] 60.7% | viability, T/C [36] 54.9%
> 10000 nM: IC50 (second compound 0.00316 µM) | IC50 (second compound 0.01 µM) | IC50 (second compound 0.0316 µM) | IC50 (second compound 0.1 µM) | IC50 (second compound 0.316 µM) | IC50 (second compound 1 µM)
